Data on six molecules can be found in US5356920A, “Imidazol-2-yl derivatives of substituted bicyclic compounds” (priority 1990, dated 1994).

By IC50 is commonly meant the concentration needed to halve the response being measured. A lower IC50 goes with higher potency. The term LD50 denotes the dose expected to kill half of the subjects tested.

The target of data set [1] is T1, acyl CoA:cholesterol acyltransferase (ACAT-EC 2.3.1.26) (Oryctolagus cuniculus, UniProt A0A5F9CPP4).
T1 construct: microsomal preparations from atherosclerotic rabbit thoracic aorta (intima media); from tissue; host or cells: microsomes from atherosclerotic rabbit thoracic aorta (intima media)
T1 sequence (A0A5F9CPP4 1-555): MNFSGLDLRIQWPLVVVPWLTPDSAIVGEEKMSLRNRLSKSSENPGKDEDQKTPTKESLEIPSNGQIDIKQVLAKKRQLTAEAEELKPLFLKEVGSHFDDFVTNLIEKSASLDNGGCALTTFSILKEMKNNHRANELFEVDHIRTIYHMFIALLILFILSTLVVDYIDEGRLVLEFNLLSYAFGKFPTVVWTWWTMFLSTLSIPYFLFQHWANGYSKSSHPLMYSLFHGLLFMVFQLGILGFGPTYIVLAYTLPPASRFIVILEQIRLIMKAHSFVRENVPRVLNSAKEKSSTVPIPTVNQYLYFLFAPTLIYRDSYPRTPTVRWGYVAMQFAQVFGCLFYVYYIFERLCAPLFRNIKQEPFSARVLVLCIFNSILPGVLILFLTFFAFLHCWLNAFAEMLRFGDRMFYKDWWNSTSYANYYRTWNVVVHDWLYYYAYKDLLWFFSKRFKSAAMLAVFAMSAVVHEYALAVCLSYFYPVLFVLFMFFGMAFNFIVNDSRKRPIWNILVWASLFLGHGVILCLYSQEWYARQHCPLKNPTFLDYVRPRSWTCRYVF
The conditions noted are these: Hudson H., Day A., Atherosclerosis (1982) 45, 109; cited from earlier work.

In data set [2] the target is T1, acyl CoA:cholesterol acyltransferase (ACAT-EC 2.3.1.26). Put plainly: ACAT inhibition in microsomes from atherosclerotic rabbit thoracic aorta (intima media). The conditions noted are these: microsomes from atherosclerotic rabbit thoracic aortas; limits p = 0.95. In kind it is biochemical.
A short description of data set [3]: orientative acute toxicity (LD50), single oral administration, assessed on the seventh day, mice. The conditions noted are these: mouse, in vivo, nine hours food deprived. As to the method: The toxicity of the compounds of the invention is negligible, therefore they can be safely used in therapy. Nine hours food deprived mice and rats were treated orally with single administration of increasing doses, then housed and normally fed. The orientative acute toxicity (LD50) was assessed on the seventh day after the treatment, for instance a LD50 greater than 800 mg/kg was found in mice for the compound coded as FCE 27116.

Take `CC(C)(Oc1ccc(CCNC(=O)c2ccc(Cl)cc2)cc1)C(=O)O` [Bezafibrate]: the “inhibitory activity in vitro (rabbit arterial microsomes)” value in data set [1] was “inhibitory activity in vitro (rabbit arterial microsomes) has been already demonstrated”. `CC(C)c1cccc(C(C)C)c1NC(=O)C(C)(C)CCCOc1ccc2c(c1)C=C(c1nccn1C)C(CCc1ccccc1)O2` (racemic) [FCE 26734, (+-)-5-[2-(2-phenylethyl)-3-(1-methyl-1H-imidazol-2-yl)-2H-1-benzopyran-6-yl]oxy-2,2-dimethyl-N-(2,6-diisopropylphenyl)pentanamide] came in with an IC50 in data set [2] of 85.1 nM. `CCOC(=O)C1(CCCOc2ccc3c(c2)C=C(c2nccn2C)C(CCc2ccccc2)O3)CCCC1` (racemic) [FCE 27051, ethyl (+-)-1-[3-(2-(2-phenylethyl)-3-(1-methyl-1H-imidazol-2-yl)-2H-1-benzopyran-6-yl)oxypropyl]cyclopentane-1-carboxylate]: the IC50 in data set [2] came out at 66.8 nM. Molecule `CCCC1Oc2ccc(OCCCC(C)(C)C(=O)OCC)cc2C=C1c1nccn1C` (racemic) [FCE 25184, ethyl (+-)-5-[2-propyl-3-(1-methyl-1H-imidazol-2-yl)-2H-benzopyran-6-yl]oxy-2,2-dimethylpentanoate, reference compound] yielded an IC50 in data set [2] of 1060 nM. For the molecule `CC(C)c1cccc(C(C)C)c1NC(=O)C(C)(C)CCCOc1ccc2c(c1)C=C(c1nccn1C)C(CCc1ccc(F)cc1F)O2` (racemic) [FCE 27113, (+-)-5-[2-(2-(2,4-difluorophenyl)ethyl)-3-(1-methyl-1H-imidazol-2-yl)-2H-1-benzopyran-6-yl)oxy-2,2-dimethyl-N-(2,6-diisopropylphenyl)pentanamide], the IC50 in data set [2] was 82.2 nM.

Regarding `Cn1ccnc1C1=Cc2cc(OCCCC(C)(C)C(=O)NC3CCCCC3)ccc2OC1CCc1ccc(F)cc1` (racemic) [FCE 27116, (+-)-5-[2-(2-(4-fluorophenyl)ethyl)-3-(1-methyl-1H-imidazol-2-yl)-2H-1-benzopyran-6-yl]oxy-2,2-dimethyl-N-cyclohexylpentanamide], the 50% lethal dose (LD50) at 168 h in data set [3] was greater than 800 mg/kg. Besides, the 50% inhibitory concentration (IC50) in data set [2] is 39.9 nM.
